Assays:
[1] = Alcohol solubility tested (200 proof ethanol, 0.22 micrometer PTFE filter); type: physicochemical
From the text: The following table lists the relative solubility of exemplary components of a formulation. A number of different dyes are listed along with their solubility information taken from the various literature sources and tested experimentally (200 proof ethanol and filtered through a 0.22 micrometer PTFE filter).

[2] = cited from earlier work

COc1cc(S(=O)(=O)[O-])c(C)cc1N=Nc1c(O)ccc2cc(S(=O)(=O)[O-])ccc12.[Na+].[Na+] [Red #40]
Yes: Alcohol Solubility (tested) [1] | Alcohol Solubility (Literature) [2] | Water Solubility [2]

CCN(Cc1cccc(S(=O)(=O)[O-])c1)c1ccc(C(=C2C=CC(=[N+](CC)Cc3cccc(S(=O)(=O)[O-])c3)C=C2)c2ccccc2S(=O)(=O)[O-])cc1.[Na+].[Na+] [Blue #1]
Yes: Alcohol Solubility (tested) [1] | Alcohol Solubility (Literature) [2] | Water Solubility [2]

O=C1/C(=C2\Nc3ccc(S(=O)(=O)[O-])cc3C2=O)Nc2ccc(S(=O)(=O)[O-])cc21.[Na+].[Na+] [Blue #2]
Yes: Alcohol Solubility (tested) [1] | Alcohol Solubility (Literature) [2] | Water Solubility [2]

O=C([O-])C1=NN(c2ccc(S(=O)(=O)[O-])cc2)C(=O)C1N=Nc1ccc(S(=O)(=O)[O-])cc1.[Na+].[Na+].[Na+] (stereo not drawn) [Yellow #5]
Yes: Alcohol Solubility (tested) [1] | Alcohol Solubility (Literature) [2] | Water Solubility [2]
